Results taken from patent publication US9546157B2, “Asymmetric piperidinyl-substituted ureas as medicines” (Helsinn Healthcare SA, priority 2014, dated 2017).
pEC50, pIC50: −log10 of the molar value.

How the values were obtained:
GHSR1a [1] = target: T1, GHSR1a (Homo sapiens, UniProt Q92847); experiment: Calcium FLIPR assay, GHSR-1a agonism; format: cell-based; design: Emax: unit not given here; settings: HEK293/GHSR1a cells
T1 construct: expressed in transfected cells; host or cells: HEK293
How it was run: (§1)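 Antagonist potency reflects lowering of the 10 nM ghrelin calcium signal in HEK293/GHSR1a cells, with compound and ghrelin given at t=20 sec. Agonism was scored from the 2-minute fluorescence response to compound alone.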

C57BL/6J mice = experiment: Food intake test in mouse (GHSR1a antagonists); format: in vivo; settings: for inhibition in vivo at 10 mg/kg / inhibition in vivo at 30 mg/kg: Mus musculus
Procedure: Male C57BL/6J mice, 18-22 g body weight, were fasted overnight (16 h before compound administration) and placed in a regular light dark cycle (6:00-18:00 light/18:00-6:00 dark). After 1 wk acclimation, animals were sorted into two groups (n=6 each, 2 per cage) based on body weight. Animals in group one were be treated with vehicle and animals in group 2 were treated with the test agent (n=6 for each group). The cumulative food intake was evaluated at 1, 2, 4, 8 and 24 hrs after drug or vehicle treatment. Food intake was measured by subtracting uneaten food from the initial premeasured food.

[2] = Metabolic Stability (M = Mouse); format: in vitro ADME
[3] = Metabolic Stability (H = Human); format: in vitro ADME
GHSR1a [4] = target: T1, GHSR1a; experiment: Calcium FLIPR assay, GHSR-1a antagonism (reduction of ghrelin response); format: cell-based; settings: HEK293/GHSR1a cells, ghrelin 10 nM
How it was run: as §1

T1 sequence (Q92847 whole entry): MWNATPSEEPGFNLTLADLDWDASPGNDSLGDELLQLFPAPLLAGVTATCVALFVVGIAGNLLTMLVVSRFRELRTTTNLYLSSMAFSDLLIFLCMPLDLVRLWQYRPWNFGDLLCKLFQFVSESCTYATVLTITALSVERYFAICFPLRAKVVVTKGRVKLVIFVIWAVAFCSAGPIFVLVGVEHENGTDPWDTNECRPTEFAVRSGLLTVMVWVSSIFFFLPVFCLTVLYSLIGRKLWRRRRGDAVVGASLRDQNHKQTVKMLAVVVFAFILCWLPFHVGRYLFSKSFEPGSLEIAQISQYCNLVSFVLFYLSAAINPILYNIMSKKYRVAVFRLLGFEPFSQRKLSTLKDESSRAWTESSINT

Row | SMILES | pEC50 (GHSR1a [1]) | Metabolic Stability M [2] | Metabolic Stability H [3] | pIC50 (GHSR1a [4]) | also measured
1 | CN1CCC(N(C)C(=O)NC(CC2CC2)c2ccc(-c3cnccn3)c(Cl)c2Cl)CC1 (stereo not shown) [Compound H0722, 3-(2-cyclopropyl-1-(2,3-dichloro-4-(pyrazin-2-yl)phenyl)ethyl)-1-methyl-1-(1-methylpiperidin-4-yl)urea] | < 4.52 | High H High M | High H High M | 7.89 | inhibition in vivo at 10 mg/kg (C57BL/6J mice; ip, 1 h, i.p. 10 mg/kg): 90%; Mouse Food Intake, result in words (C57BL/6J mice; PO 30 mg/kg): NSE
2 | CC(NC(=O)N(C)C1CCN(C)CC1)c1ccc(Cl)c(Cl)c1Cl (stereo not shown) [Compound H0381, 1-methyl-1-(1-methylpiperidin-4-yl)-3-(1-(2,3,4-trichlorophenyl)ethyl)urea] | < 4.52 | Meidum | Medium | 7.92 | Mouse Food Intake, result in words (C57BL/6J mice; i.p., dose not given): IP: No effect
3 | Cc1cncc(-c2ccc(C(C)NC(=O)N(C)C3CCN(C)CC3)c(Cl)c2Cl)c1 (stereo not shown) [Compound H0639, 3-(1-(2,3-dichloro-4-(5-methylpyridin-3-yl)phenyl)ethyl)-1-methyl-1-(1-methylpiperidin-4-yl)urea] | < 4.52 | Medium H Medium M | Medium H Medium M | 7.32 | Mouse Food Intake, result in words (C57BL/6J mice; i.p. 10 mg/kg): NSE (10 mg/kg)
4 | CC(NC(=O)N(C)[C@@H]1CCN(C)CC1(C)C)c1ccc(-c2cnccn2)c(Cl)c1Cl (stereo partly drawn) [Compound H0824, 2-(1-(2,3-dichloro-4-(pyrazin-2-yl)phenyl)ethyl)-1-methyl-1-((R)-1,3,3-trimethylpiperidin-4-yl)urea] | < 4.52 | Medium | High | 8.52 | Mouse Food Intake, result in words (C57BL/6J mice; PO 30 mg/kg + ANA mice): PO 30 mg/kg + ANA mice: NSE
5 | CC(NC(=O)N(C)C1CCN(C)CC1)c1ccc(-c2cccs2)c(Cl)c1Cl (stereo not shown) [Compound H0536, 3-(1-(2,3-dichloro-4-(thiophen-2-yl)phenyl)ethyl)-1-methyl-1-(1-methylpiperidin-4-yl)urea] | < 4.52 | Medium H Medium M | Medium H Medium M | 8.52 | inhibition in vivo at 30 mg/kg (C57BL/6J mice; ip, 1 h, i.p. 30 mg/kg): 76%
6 | CC(NC(=O)N(C)C1CCN(C)CC1)c1ccc(-c2cncnc2)c(Cl)c1Cl (stereo not shown) [Compound H0516, 3-(1-(2,3-dichloro-4-(pyrimidin-5-yl)phenyl)ethyl)-1-methyl-1-(1-methylpiperidin-4-yl)urea] | < 4.52 | High H High M | High H High M | 7.39 | inhibition in vivo at 30 mg/kg (C57BL/6J mice; ip, 1 h, i.p. 30 mg/kg): 88%; Mouse Food Intake, result in words (C57BL/6J mice; PO, dose not given): no effect
7 | CC(NC(=O)N(C)C1CCN(C)CC1)c1ccc(-c2ccsc2)c(Cl)c1Cl (stereo not shown) [Compound H0498, 3-(1-(2,3-dichloro-4-(thiophen-3-yl)phenyl)ethyl)-1-methyl-1-(1-methylpiperidin-4-yl)urea] | < 4.52 | High | Medium | 7.54 | inhibition in vivo at 30 mg/kg (C57BL/6J mice; ip, 1 h, i.p. 30 mg/kg): 76%
8 | COc1ncc(-c2ccc(C(C)NC(=O)N(C)C3CCN(C)CC3)c(Cl)c2Cl)cn1 (stereo not shown) [Compound H0649, 3-(1-(2,3-dichloro-4-(2-methoxypyrimidin-5-yl)phenyl)ethyl)-1-methyl-1-(1-methylpiperidin-4-yl)urea] | 7.19 | High H High M | High H High M | 7.74 | Emax (GHSR1a [1]): 1400; inhibition in vivo at 10 mg/kg (C57BL/6J mice; ip, 1 h, i.p. 10 mg/kg): 48%; inhibition in vivo at 10 mg/kg (C57BL/6J mice; ip, 2 h, i.p. 10 mg/kg): 48%
9 | COc1ccc(-c2ccc(C(C)NC(=O)N(C)C3CCN(C)CC3)c(Cl)c2Cl)cn1 (stereo not shown) [Compound H0511, 3-(1-(2,3-dichloro-4-(6-methoxypyridin-3-yl)phenyl)ethyl)-1-methyl-1-(1-methylpiepridin-4-yl)urea] | < 4.52 | Medium H Medium M | Medium H Medium M | 7.01 | inhibition in vivo at 30 mg/kg (C57BL/6J mice; ip, 1 h, i.p. 30 mg/kg): 94%
10 | C#Cc1ccc(C(C)NC(=O)N(C)C2CCN(C)CC2)c(Cl)c1Cl (single isomer, unassigned) [Compound H0678, 3-(1-(2,3-dichloro-4-ethynylphenyl)ethyl)-1-methyl-1-(1-methylpiperidin-4-yl)urea] | < 4.52 | Medium H Medium M | Medium H Medium M | 7.26 | inhibition in vivo at 10 mg/kg (C57BL/6J mice; ip, 1 h, i.p. 10 mg/kg): 78%; Mouse Food Intake, result in words (C57BL/6J mice; PO, dose not given): no effect
11 | CC(NC(=O)N(C)C1CCN(C)CC1)c1ccc(-c2cnccn2)c(Cl)c1Cl (stereo not shown) [Compound H0700, 3-(1-(2,3-dichloro-4-(pyrazin-2-yl)phenyl)ethyl)-1-methyl-1-(1-methylpiperidin-4-yl)urea] | < 4.52 | High H High M | High H High M | 8.15 | inhibition in vivo at 10 mg/kg (C57BL/6J mice; 1 h, Fed mice, 10 mg/kg): 71%; inhibition in vivo at 10 mg/kg (C57BL/6J mice; ip, 2 h, i.p. 10 mg/kg): 41%
12 | CC(NC(=O)N(C)C1CCN(C)CC1)c1ccc(/C=C/c2cccs2)c(Cl)c1Cl (stereo not shown) [Compound H0767, (E)-3-(1-(2,3-dichloro-4-(2-(thiophen-2-yl)vinyl)phenyl)ethyl)-1-methyl-1-(1-methylpiperidin-4-yl)urea] | < 4.52 | High H High M | High H High M | 7.43 | inhibition in vivo at 10 mg/kg (C57BL/6J mice; ip, 1 h, i.p. 10 mg/kg): 88%; Mouse Food Intake, result in words (C57BL/6J mice; PO, dose not given): NSE
13 | Cc1noc(-c2ccc(C(C)NC(=O)N(C)C3CCN(C)CC3)c(Cl)c2Cl)n1 (stereo not shown) [Compound H0596, 3-(1-(2,3-dichloro-4-(3-methyl-1,2,4-oxadiazol-5-yl)phenyl)ethyl)-1-methyl-1-(1-methylpiperidin-4-yl)urea] | 8.52 | High H High M | High H High M | 8.05 | Mouse Food Intake, result in words (C57BL/6J mice; i.p. 10 mg/kg): NSE (10 mg/kg)
14 | C[C@@H](NC(=O)N(C)C1CCN(C)CC1)c1ccc(-c2cncc(F)n2)c(Cl)c1Cl [Compound H0848, (R)-3-(1-(2,3-dichloro-4-(6-fluoropyrazin-2-yl)phenyl)ethyl)-1-methyl-1-(1-methylpiperidin-4-yl)urea] | < 4.52 | High | Medium | 6.36 | Mouse Food Intake, result in words (C57BL/6J mice; PO 10 mg/kg + ANA (ANAM) 30 mg/kg mice): PO 10 mg/kg + ANA 30 mg/kg mice: NSE

Further lines, with some results ahead:

Row | pEC50 (GHSR1a [1]) | Metabolic Stability M [2] | Metabolic Stability H [3] | pIC50 (GHSR1a [4]) | SMILES | also measured
15 | 8.70 | High H High M | High H High M | < 4.52 | CC(NC(=O)N(O)C1CCN(C)CC1)c1ccc(C(F)F)c(Cl)c1Cl (stereo not shown) [Compound H0621, 3-(1-(2,3-dichloro-4-(difluoromethyl)phenyl)ethyl)-1-hydroxy-1-(1-methylpiperidin-4-yl)urea] | Emax (GHSR1a [1]): 3896; Mouse Food Intake, result in words (C57BL/6J mice; i.p., dose not given): No Effect
16 | 7.85 | High H High M | High H High M | 8.00 | CC(NC(=O)N(C)C1CCN(C)CC1)c1ccc(C#CC2CC2)c(Cl)c1Cl (stereo not shown) [Compound H0764, 3-(1-(2,3-dichloro-4-(cyclopropylethynyl)phenyl)ethyl)-1-methyl-1-(1-methylpiperidin-4-yl)urea] | Emax (GHSR1a [1]): 1352; inhibition in vivo at 10 mg/kg (C57BL/6J mice; ip, 1 h, i.p. 10 mg/kg): 91%; inhibition in vivo at 30 mg/kg (C57BL/6J mice; po, 2 h, PO 30 mg/kg): 70%; inhibition in vivo at 30 mg/kg (C57BL/6J mice; sc, 1 h, SC 30 mg/kg): 53%
17 | < 4.52 | High H High M | High H High M | 7.92 | CC(NC(=O)N(C)C1CCN(C)CC1)c1ccc(-c2cncc(F)c2)c(Cl)c1Cl (stereo not shown) [Compound H0614, 3-(1-(2,3-dichloro-4-(5-fluoropyridin-3-yl)phenyl)ethyl)-1-methyl-1-(1-methylpiperidin-4-yl)urea] | Mouse Food Intake, result in words (C57BL/6J mice; PO, dose not given): No IP done, PO: NSE
18 | < 4.52 | Medium | High | 7.44 | CC(NC(=O)N(C)C1CCN(C)CC1)c1ccc(Br)c2ccccc12 (stereo not shown) [Compound H0573, 3-(1-(4-bromonaphthalen-1-yl)ethyl)-1-methyl-1-(1-methylpiperidin-4-yl)urea] | Mouse Food Intake, result in words (C57BL/6J mice; PO 30 mg/kg): PO: NSE (30 mg/kg)
19 | < 4.52 | Medium H Medium M | Medium H Medium M | 7.92 | CC(NC(=O)N(C)C1CCN(C)CC1)c1ccc(-c2cn[nH]c2)c(Cl)c1Cl (stereo not shown) [Compound H0499, 3-(1-(2,3-dichloro-4-(1H-pyrazol-4-yl)phenyl)ethyl)-1-methyl-1-(1-methylpiperidin-4-yl)urea] | Mouse Food Intake, result in words (C57BL/6J mice; i.p. 30 mg/kg): NSE (30 mg/kg)
20 | 7.18 | High | Medium | 7.28 | CC(NC(=O)N(C)C1CCN(C)CC1)c1ccc(C2CC2)c(Cl)c1Cl (stereo not shown) [Compound H0494, 3-(1-(2,3-dichloro-4-cyclopropylphenyl)ethyl)-1-methyl-1-(1-methylpiperidin-4-yl)urea] | Emax (GHSR1a [1]): 2996; Mouse Food Intake, result in words (C57BL/6J mice; i.p., dose not given): No Effect
